# According to patent publication US11807835B2, “Detergent compositions containing a stabilized enzyme by phosphonates” (ECOLAB USA INC., priority 2016, dated 2023):
# Experiments:
# Type in all cases: biochemical
# [1] = test system: enzyme (protease, amylase, lipase); assay: Overall effects of phosphonates on enzyme activity (Table 3); details: overall effect of the phosphonate on enzyme activity in the detergent use solution
# How it was run: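 Protease, amylase and lipase activity in detergent use solutions with varied phosphonate levels, 4000 ppm in 5 GPG water at 120° F., sampled up to 4 h and frozen at −80° C. before assay. Activity given as % retention relative to t=0 (100%).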
# [2] = test system: protease; assay: Protease activity retention in detergent use solution (4000 ppm, 5 GPG water; peptidyl substrate, glycine buffer pH 9.0); details: for Relative Protease Enzyme Activity: use solution at 120° F.
# How it was run: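 Detergent use solutions at 4000 ppm in 5 GPG water were held at 120° F with stirring and sampled up to 4 h, with aliquots flash-frozen. Activity was read on a peptidyl substrate in glycine buffer pH 9.0 by absorbance against a calibration curve. Retention is % activity relative to the t=0 sample.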
# [3] = test system: lipase; assay: Lipase activity retention in detergent use solution (4000 ppm, 5 GPG water; p-nitrophenyl valerate, TRIS buffer pH 8.0); details: for Relative Lipase Enzyme Activity in a Use Solution of the All Ash Detergent Composition: Table 6F, 120º F.; for Relative Lipase Enzyme Activity: base formula
# How it was run: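 Lipase stability was measured in a detergent use solution under conditions mimicking presoak or manual warewash, with stirring in a water bath. Aliquots were taken over time and flash-frozen. Thawed samples were diluted in TRIS buffer at pH 8.0 and assayed with p-nitrophenyl valerate as substrate on a plate reader. Activity is reported as % retained relative to the time=0 sample.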
compound,measurement,setting,value
"O=P(O)(O)CN(CP(=O)(O)O)CP(=O)(O)O [ATMP, Aminotri (methylene phosphonic acid)]",Stability (effects on enzyme activity),[1],Yes
same,Relative Protease Enzyme Activity,"[2]; All Ash formula, phosphonate 0.3 wt-%, time 0 min",100.00%
same,Relative Protease Enzyme Activity,"[2]; All Ash formula, phosphonate 0.3 wt-%, time 5 min",84.60%
same,Relative Protease Enzyme Activity,"[2]; All Ash formula, phosphonate 0.3 wt-%, time 10 min",75.67%
same,Relative Protease Enzyme Activity,"[2]; All Ash formula, phosphonate 0.3 wt-%, time 20 min",53.32%
same,Relative Protease Enzyme Activity,"[2]; All Ash formula, phosphonate 0.3 wt-%, time 40 min",33.78%
same,Relative Protease Enzyme Activity,"[2]; All Ash formula, phosphonate 0.3 wt-%, time 60 min",22.22%
same,Relative Protease Enzyme Activity,"[2]; All Ash formula, phosphonate 0.3 wt-%, time 90 min",15.40%
same,Relative Protease Enzyme Activity,"[2]; All Ash formula, phosphonate 0.3 wt-%, time 120 min",11.13%
same,Relative Protease Enzyme Activity,"[2]; All Ash formula, phosphonate 0.3 wt-%, time 150 min",9.39%
same,Relative Protease Enzyme Activity,"[2]; All Ash formula, phosphonate 0.3 wt-%, time 180 min",7.41%
same,Relative Protease Enzyme Activity,"[2]; All Ash formula, phosphonate 0.3 wt-%, time 210 min",6.17%
same,Relative Protease Enzyme Activity,"[2]; All Ash formula, phosphonate 0.3 wt-%, time 240 min",5.58%
same,protease stability in all ash formula,"[2]; all ash formula, versus same composition with PBTC or HEDP without amine(s), FIG. 2D",more stable
same,Relative Protease Enzyme Activity,"[2]; base formula, phosphonate 0.3 wt-%, time 0 min",100.00%
same,Relative Protease Enzyme Activity,"[2]; base formula, phosphonate 0.3 wt-%, time 5 min",94.95%
same,Relative Protease Enzyme Activity,"[2]; base formula, phosphonate 0.3 wt-%, time 10 min",94.68%
same,Relative Protease Enzyme Activity,"[2]; base formula, phosphonate 0.3 wt-%, time 20 min",89.76%
same,Relative Protease Enzyme Activity,"[2]; base formula, phosphonate 0.3 wt-%, time 40 min",87.06%
same,Relative Protease Enzyme Activity,"[2]; base formula, phosphonate 0.3 wt-%, time 60 min",83.93%
same,Relative Protease Enzyme Activity,"[2]; base formula, phosphonate 0.3 wt-%, time 90 min",80.79%
same,Relative Protease Enzyme Activity,"[2]; base formula, phosphonate 0.3 wt-%, time 120 min",76.31%
same,Relative Protease Enzyme Activity,"[2]; base formula, phosphonate 0.3 wt-%, time 150 min",73.96%
same,Relative Protease Enzyme Activity,"[2]; base formula, phosphonate 0.3 wt-%, time 180 min",70.37%
same,Relative Protease Enzyme Activity,"[2]; base formula, phosphonate 0.3 wt-%, time 210 min",65.72%
same,Relative Protease Enzyme Activity,"[2]; base formula, phosphonate 0.3 wt-%, time 240 min",63.75%
same,Relative Protease Enzyme Activity,"[2]; base formula, phosphonate 0.6 wt-%, time 0 min",100.00%
same,Relative Protease Enzyme Activity,"[2]; base formula, phosphonate 0.6 wt-%, time 5 min",91.70%
same,Relative Protease Enzyme Activity,"[2]; base formula, phosphonate 0.6 wt-%, time 10 min",102.58%
same,Relative Protease Enzyme Activity,"[2]; base formula, phosphonate 0.6 wt-%, time 20 min",100.03%
same,Relative Protease Enzyme Activity,"[2]; base formula, phosphonate 0.6 wt-%, time 40 min",97.16%
same,Relative Protease Enzyme Activity,"[2]; base formula, phosphonate 0.6 wt-%, time 60 min",92.31%
same,Relative Protease Enzyme Activity,"[2]; base formula, phosphonate 0.6 wt-%, time 90 min",89.99%
same,Relative Protease Enzyme Activity,"[2]; base formula, phosphonate 0.6 wt-%, time 120 min",91.60%
same,Relative Protease Enzyme Activity,"[2]; base formula, phosphonate 0.6 wt-%, time 150 min",86.21%
same,Relative Protease Enzyme Activity,"[2]; base formula, phosphonate 0.6 wt-%, time 180 min",89.08%
same,Relative Protease Enzyme Activity,"[2]; base formula, phosphonate 0.6 wt-%, time 210 min",89.86%
same,Relative Protease Enzyme Activity,"[2]; base formula, phosphonate 0.6 wt-%, time 240 min",82.33%
same,Relative Protease Enzyme Activity,"[2]; base formula, phosphonate at 0.1% elemental phosphorus, time 0 min",100.00%
same,Relative Protease Enzyme Activity,"[2]; base formula, phosphonate at 0.1% elemental phosphorus, time 5 min",122.55%
same,Relative Protease Enzyme Activity,"[2]; base formula, phosphonate at 0.1% elemental phosphorus, time 10 min",116.65%
same,Relative Protease Enzyme Activity,"[2]; base formula, phosphonate at 0.1% elemental phosphorus, time 20 min",115.14%
same,Relative Protease Enzyme Activity,"[2]; base formula, phosphonate at 0.1% elemental phosphorus, time 40 min",107.73%
same,Relative Protease Enzyme Activity,"[2]; base formula, phosphonate at 0.1% elemental phosphorus, time 60 min",102.70%
same,Relative Protease Enzyme Activity,"[2]; base formula, phosphonate at 0.1% elemental phosphorus, time 90 min",111.18%
same,Relative Protease Enzyme Activity,"[2]; base formula, phosphonate at 0.1% elemental phosphorus, time 120 min",106.19%
same,Relative Protease Enzyme Activity,"[2]; base formula, phosphonate at 0.1% elemental phosphorus, time 150 min",96.80%
same,Relative Protease Enzyme Activity,"[2]; base formula, phosphonate at 0.1% elemental phosphorus, time 180 min",93.35%
same,Relative Protease Enzyme Activity,"[2]; base formula, phosphonate at 0.1% elemental phosphorus, time 210 min",90.51%
same,Relative Protease Enzyme Activity,"[2]; base formula, phosphonate at 0.1% elemental phosphorus, time 240 min",88.60%
same,Relative Lipase Enzyme Activity in a Use Solution of the All Ash Detergent Composition,"[3]; all ash formula, phosphonate 0.3 wt-%, time 0 min",100.00%
same,Relative Lipase Enzyme Activity in a Use Solution of the All Ash Detergent Composition,"[3]; all ash formula, phosphonate 0.3 wt-%, time 5 min",61.64%
same,Relative Lipase Enzyme Activity in a Use Solution of the All Ash Detergent Composition,"[3]; all ash formula, phosphonate 0.3 wt-%, time 10 min",63.66%
same,Relative Lipase Enzyme Activity in a Use Solution of the All Ash Detergent Composition,"[3]; all ash formula, phosphonate 0.3 wt-%, time 20 min",54.08%
same,Relative Lipase Enzyme Activity in a Use Solution of the All Ash Detergent Composition,"[3]; all ash formula, phosphonate 0.3 wt-%, time 40 min",41.20%
same,Relative Lipase Enzyme Activity in a Use Solution of the All Ash Detergent Composition,"[3]; all ash formula, phosphonate 0.3 wt-%, time 60 min",36.19%
same,Relative Lipase Enzyme Activity in a Use Solution of the All Ash Detergent Composition,"[3]; all ash formula, phosphonate 0.3 wt-%, time 90 min",30.66%
same,Relative Lipase Enzyme Activity in a Use Solution of the All Ash Detergent Composition,"[3]; all ash formula, phosphonate 0.3 wt-%, time 120 min",19.17%
same,Relative Lipase Enzyme Activity in a Use Solution of the All Ash Detergent Composition,"[3]; all ash formula, phosphonate 0.3 wt-%, time 150 min",23.54%
same,Relative Lipase Enzyme Activity in a Use Solution of the All Ash Detergent Composition,"[3]; all ash formula, phosphonate 0.3 wt-%, time 180 min",14.43%
same,Relative Lipase Enzyme Activity in a Use Solution of the All Ash Detergent Composition,"[3]; all ash formula, phosphonate 0.3 wt-%, time 210 min",13.63%
same,Relative Lipase Enzyme Activity in a Use Solution of the All Ash Detergent Composition,"[3]; all ash formula, phosphonate 0.3 wt-%, time 240 min",12.97%
same,lipase stability in all ash formula,"[3]; all ash formula, versus same composition with PBTC or HEDP without amine(s), FIG. 6G",more stable
same,Relative Lipase Enzyme Activity,"[3]; phosphonate 0.3 wt-%, use solution at 120° F., time 0 min",100.00%
same,Relative Lipase Enzyme Activity,"[3]; phosphonate 0.3 wt-%, use solution at 120° F., time 5 min",79.77%
same,Relative Lipase Enzyme Activity,"[3]; phosphonate 0.3 wt-%, use solution at 120° F., time 10 min",71.10%
same,Relative Lipase Enzyme Activity,"[3]; phosphonate 0.3 wt-%, use solution at 120° F., time 20 min",62.47%
same,Relative Lipase Enzyme Activity,"[3]; phosphonate 0.3 wt-%, use solution at 120° F., time 40 min",39.28%
same,Relative Lipase Enzyme Activity,"[3]; phosphonate 0.3 wt-%, use solution at 120° F., time 60 min",34.01%
same,Relative Lipase Enzyme Activity,"[3]; phosphonate 0.3 wt-%, use solution at 120° F., time 90 min",26.70%
same,Relative Lipase Enzyme Activity,"[3]; phosphonate 0.3 wt-%, use solution at 120° F., time 120 min",22.13%
same,Relative Lipase Enzyme Activity,"[3]; phosphonate 0.3 wt-%, use solution at 120° F., time 150 min",19.07%
same,Relative Lipase Enzyme Activity,"[3]; phosphonate 0.3 wt-%, use solution at 120° F., time 180 min",17.48%
same,Relative Lipase Enzyme Activity,"[3]; phosphonate 0.3 wt-%, use solution at 120° F., time 210 min",15.49%
same,Relative Lipase Enzyme Activity,"[3]; phosphonate 0.3 wt-%, use solution at 120° F., time 240 min",14.68%
same,Relative Lipase Enzyme Activity,"[3]; phosphonate 0.6 wt-%, use solution at 120º F., time 0 min",100.00%
same,Relative Lipase Enzyme Activity,"[3]; phosphonate 0.6 wt-%, use solution at 120º F., time 5 min",93.26%
same,Relative Lipase Enzyme Activity,"[3]; phosphonate 0.6 wt-%, use solution at 120º F., time 10 min",87.80%
same,Relative Lipase Enzyme Activity,"[3]; phosphonate 0.6 wt-%, use solution at 120º F., time 20 min",81.36%
same,Relative Lipase Enzyme Activity,"[3]; phosphonate 0.6 wt-%, use solution at 120º F., time 40 min",60.03%
same,Relative Lipase Enzyme Activity,"[3]; phosphonate 0.6 wt-%, use solution at 120º F., time 60 min",56.12%
same,Relative Lipase Enzyme Activity,"[3]; phosphonate 0.6 wt-%, use solution at 120º F., time 90 min",49.58%
same,Relative Lipase Enzyme Activity,"[3]; phosphonate 0.6 wt-%, use solution at 120º F., time 120 min",42.20%
same,Relative Lipase Enzyme Activity,"[3]; phosphonate 0.6 wt-%, use solution at 120º F., time 150 min",37.91%
same,Relative Lipase Enzyme Activity,"[3]; phosphonate 0.6 wt-%, use solution at 120º F., time 180 min",33.77%
same,Relative Lipase Enzyme Activity,"[3]; phosphonate 0.6 wt-%, use solution at 120º F., time 210 min",32.19%
same,Relative Lipase Enzyme Activity,"[3]; phosphonate 0.6 wt-%, use solution at 120º F., time 240 min",29.80%
same,Relative Lipase Enzyme Activity,"[3]; phosphonate at 0.1% elemental phosphorus, at 120º F. or at room temperature (as titled), time 0 min",100.00%
same,Relative Lipase Enzyme Activity,"[3]; phosphonate at 0.1% elemental phosphorus, at 120º F. or at room temperature (as titled), time 5 min",82.14%
same,Relative Lipase Enzyme Activity,"[3]; phosphonate at 0.1% elemental phosphorus, at 120º F. or at room temperature (as titled), time 10 min",78.45%
same,Relative Lipase Enzyme Activity,"[3]; phosphonate at 0.1% elemental phosphorus, at 120º F. or at room temperature (as titled), time 20 min",64.87%
same,Relative Lipase Enzyme Activity,"[3]; phosphonate at 0.1% elemental phosphorus, at 120º F. or at room temperature (as titled), time 40 min",45.84%
same,Relative Lipase Enzyme Activity,"[3]; phosphonate at 0.1% elemental phosphorus, at 120º F. or at room temperature (as titled), time 60 min",37.66%
same,Relative Lipase Enzyme Activity,"[3]; phosphonate at 0.1% elemental phosphorus, at 120º F. or at room temperature (as titled), time 90 min",30.16%
same,Relative Lipase Enzyme Activity,"[3]; phosphonate at 0.1% elemental phosphorus, at 120º F. or at room temperature (as titled), time 120 min",25.91%
same,Relative Lipase Enzyme Activity,"[3]; phosphonate at 0.1% elemental phosphorus, at 120º F. or at room temperature (as titled), time 150 min",21.51%
same,Relative Lipase Enzyme Activity,"[3]; phosphonate at 0.1% elemental phosphorus, at 120º F. or at room temperature (as titled), time 180 min",15.43%
same,Relative Lipase Enzyme Activity,"[3]; phosphonate at 0.1% elemental phosphorus, at 120º F. or at room temperature (as titled), time 210 min",17.94%
same,Relative Lipase Enzyme Activity,"[3]; phosphonate at 0.1% elemental phosphorus, at 120º F. or at room temperature (as titled), time 240 min",15.64%
